Measured values as given in US10391070B2, “Compositions and methods for treating neurological diseases or injury” (MUSC FOUNDATION FOR RESEARCH DEVELOPMENT, priority 2012, dated 2019).

What was measured:
[1] = Antioxidant activity assay (DPPH free radical scavenging); details: 20 μM, 100 μM DPPH in methanol
Procedure: Antioxidant activity of various reagents was assayed as previously described by monitoring the disappearance of the optical absorbance of the stable-free radical DPPH on reaction with test compounds (Blois, 1958). The rate of the reaction represents the antioxidant potency of test agents. The known free radical scavenger Trolox and ascorbic acid were used as positive controls. Briefly, 10 μL of test reagents at final concentrations of 20 μM were added to 200 μL of 100 μM DPPH in methanol. Optical absorbance of DPPH at 517 nm was immediately monitored for 10 min.

PGAM5 = assay: Western blot, PGAM5 cleavage; type: cell-based, mouse; details: HT22, glutamate
Procedure: HT-22 cells were cultured and treated as described above for the qRT-PCR experiments. After 16 hrs, the media was collected and the cells harvested by trypsanization. After centrifugation, pelleted cells were washed with cold HBSS Ca^2+/Mg^2+ Free, followed by lysis with a low salt lysis buffer (50 mM Tris-HCl, pH 7.4, 150 mM NaCl, 10% glycerol, 0.5 Triton X-100, 1× protease and phosphatase inhibitor cocktail) for 30 min, followed by a 15-s sonication pulse at 30 W. For Western blot analysis, the cell lysates were denatured with LDS loading buffer (Invitrogen) and run on Nupage 4-12% Tris-glysine gradient gels (Invitrogen) after centrifugation. Phosphorylated Drp1 (Ser637) (Cell Signaling) and total Drp1 (C5) (Santa Cruz), PGAM5 (K16) (Santa Cruz Biotechnology), Actin (Sigma-Aldritch) and alpha-Tubulin (Santa Cruz Biotechnology) were assessed with primary antibody, followed by rabbit, mouse, or goat IgG-HRP secondary antibody. The blot was developed using Pierce Thermo Dura-ECL reagent (Thermo-Fisher) and visualized using an ImageQuant LAS 4000 (GE). Digital images of membranes were quantified by computer-assisted densitometry using Image J 1.42q (National Institutes of Health, MD).

NQO-1 = assay: qRT-PCR of antioxidant response gene NQO-1; type: cell-based, mouse; details: HT22, 10 mM glutamate 16 hrs, relative to glutamate only
Procedure: HT22 cells were seeded onto cell culture treated 6-well plates at 3.0×10^5 cells per well in 2 mL of medium and maintained at 37° C. in 5% CO2 overnight prior to the initiation of experimental treatments. Cells were subsequently treated with 1 mL of medium containing glutamate (monosodium glutamate, Sigma-Aldritch, 1 M stock concentration in media, to achieve a final concentration of 10 mM) plus inhibitors (stock in DMSO) and maintained at 37° C. in 5% CO2. After 16 hrs, the media was collected and the cells harvested by trypsanization. After centrifugation, pelleted cells were washed with cold Hanks' Balanced Salt Solution (HBSS Ca^2+/Mg^2+ Free; Invitrogen; KCl 5.33 mM, KH2PO4 0.441 mM, NaHCO3 4.17 mM, NaCl 137.93 mM, Na2HPO4 0.338 mM, D-Glucose 5.56 mM), qRT-PCR was used to detect HO-1, NQO-1, and PGAM5 mRNAs in the HT22 cells. […] Therefore β2-microglobulin was used as a reference gene (Barrionuevo and Burggren, 1999). HT22 cells were cultured as described for 16 hrs. Total RNAs were extracted using the RNEasy kit (Qiagen), and transcripts of interest were amplified by PCR using the 1-step Syber Green qRT-PCR kit (Quanta) and the following specific primers (Harvard PrimerBank; Integrated DNA Technologies): HO-1, 5′-[…]-3′ (SEQ ID NO:1) and 5′-[…]-3′ (SEQ ID NO:2); PGAM5, 5′-[…]-3′ (SEQ ID NO:3) and 5′-[…]-3′ (SEQ ID NO:4); NQO-1, 5′-[…]-3′ (SEQ ID NO:5) and 5′-[…]-3′ (SEQ ID NO:6); and β2-microglobulin, 5′-[…]-3′ (SEQ ID NO:7) and 5′-[…]-3′ (SEQ ID NO:8). Linearity of the primers was verified before use, and fold changes were calculated as previously described using the Livak method (Barrionuevo and Burggren, 1999).

[2] = test system: maximal electroshock-induced seizures; assay: Maximal electroshock test; type: in vivo, mouse; details: mice; for animals protected/animals tested, 0.25 hr / animals protected/animals tested, 0.5 hr / animals protected/animals tested, 1.0 hr / animals protected/animals tested, 2.0 hr / animals protected/animals tested, 4.0 hr: 100 mg/kg i.p., maximal electroshock
Procedure: (§1) Mouse studies were performed by NIH Anticonvulsant Screening Program at the National Institute of Neurological Disorders and Stroke (Stables and Kupferberg, 1997) according to the established NIH experimental procedures outlined below. Compounds were delivered into mice by i.p. injection at a dose of 100 mg/kg in sterile 5% DMSO, 95% Neobee (Josey et al., 2013). One of four methods for seizure induction was subsequently administered to mice at 0.25, 0.5, 1, 2 and 4 h after treatment with compound. (1) Subcutaneous PTZ seizure threshold test. PTZ was administered at a concentration of 85 mg/kg, into the loose fold of skin in the midline of the neck. […] (2) Maximal electroshock test. 60 Hz of 50 mA alternating current was delivered for 0.2 s by corneal electrodes. Mice were considered protected from seizures when the hindlimb tonic extensor was absent (White et al., 1995). (3) Minimal clonic seizure (6 Hz) test. 6 Hz of 32 mA or 44 mA alternating current was delivered for 3 s by corneal electrodes to elicit a psychomotor seizure. Mice were considered protected from seizures when the automatistic behaviors were absent (Barton et al., 2001). (4) Corneal kindled mouse model. Mice were kindled electrically with a 3 s stimulation, 8 mA, 60 Hz, and corneal electrodes to a criterion of 10 consecutive Stage 5 seizures (facial clonus and head nodding progressing to forelimb clonus, and finally rearing and falling accompanied by a generalized clonic seizure as described by Racine, 1972). Animals generally reach Stage 5 after twice daily stimulation for 8 days. With continued stimulation once a day, animals usually progressed to a reproducible Stage 5 after 10-14 additional days. At least 72 hours after the mice were kindled, the test substance was administered i.p. and each animal was given the electrical stimulus indicated above. […] Treated animals not displaying a Stage 4 or 5 seizure were considered protected.
The data for each treatment is represented as the number of animals protected/number of animals tested.
The maximal electroshock-induced seizures (MES) test is a model for generalized tonic-clonic seizures and provides an indication of a compound's ability to prevent seizure spread when all neuronal circuits in the brain are maximally active. These seizures are highly reproducible and are electrophysiologically consistent with human seizures. An animal is considered “protected” from MES-induced seizures based on abolition of the hindlimb tonic extensor component of the seizure.

PTZ-induced seizures = assay: Subcutaneous PTZ seizure threshold test; type: in vivo, mouse; details: mice, 100 mg/kg i.p. pretreatment, PTZ 85 mg/kg s.c.
Procedure: as §1

| Molecule | free radical scavenging capacity (DPPH absorbance) [1] | increase in lower band (cleavage product) of PGAM5 (PGAM5; 125 nM) | NQO-1 gene expression (NQO-1) | anticonvulsant activity in maximal electroshock test [2] | animals protected/animals tested, 0.25 hr [2] | animals protected/animals tested, 0.5 hr [2] | animals protected/animals tested, 1.0 hr [2] | animals protected/animals tested, 2.0 hr [2] | animals protected/animals tested, 4.0 hr [2] | effect on PTZ-induced seizures (PTZ-induced seizures) | increase in lower band (cleavage product) of PGAM5 (PGAM5; 500 nM) |
| --- | --- | --- | --- | --- | --- | --- | --- | --- | --- | --- | --- |
| O=C1C=C(NCc2ccccc2)C(=O)c2ccccc21 [Compound 2j, 2-(benzylamino)naphthalene-1,4-dione] | did not show direct antioxidant capacity | completely attenuated | did not affect NQO-1 expression | limited anticonvulsant activity | 0/4 | 0/4 | 0/4 | 2/4 | 0/4 | had no effect on PTZ-induced seizures in mice | – |
| O=C1C=C(NCc2cccc(Cl)c2)C(=O)c2ccccc21 [Compound 2q, 2-((3-chlorobenzyl)amino)naphthalene-1,4-dione] | did not show direct antioxidant capacity | completely attenuated | did not affect NQO-1 expression | – | 0/4 | 0/4 | 0/4 | 0/4 | 0/4 | had no effect on PTZ-induced seizures in mice | – |
| C#CCNC1=CC(=O)c2ccccc2C1=O [Compound 2h, 2-(prop-2-yn-1-ylamino)naphthalene-1,4-dione] | – | – | – | limited anticonvulsant activity | 0/4 | 0/4 | 0/4 | 1/4 | 1/4 | had no effect on PTZ-induced seizures in mice | – |
| menaquinones [VK2, reference compound] | did not show direct antioxidant capacity | – | did not affect NQO-1 expression | – | – | – | – | – | – | – | completely attenuated |
